Key:
E. coli DNA gyrase = E. coli DNA gyrase (Escherichia coli, UniProt P0AES4); assay: E. coli gyrase DNA cleavage assay; assay type: biochemical; set-up: key to Gyrase inhibition strong+ / weak −: + strong inhibition; − weak inhibition in comparison to compound 16; details: for CC50: E. coli gyrase DNA cleavage, read-out: CC50 (concentration at half-maximum cleavage); for Gyrase inhibition strong+ / weak −: qualitative DNA cleavage assay at 1 μM and 10 μM, in comparison to compound 16
Protocol: The target activity of the synthesized derivatives was investigated using a DNA cleavage assay with purified and enzymatically active E. coli DNA gyrase[8] (see SI). In this assay, albicidin‐stabilized complexes of gyrase and plasmid DNA are trapped, and subsequently denatured and deproteinated to reveal DNA linearized by gyrase. […] For the best performing compounds, which were able to fully stabilize the cleavage complex at a concentration of 1 μM, the concentrations at half‐maximum cleavage (CC50) were determined (Figure 3).
1.2 Escherichia coli Gyrase Cleavage Inhibition Assay
E. coli gyrase cleavage assays were executed by setting up a master mix including 0.25 µg relaxed plasmid (pBR322) in 35 mM Tris-HCl (pH 7.5), 24 mM KCl, 4 mM MgCl2, 2 mM dithithreitol (DTT), 1.8 mM spermidine, 1 mM ATP, 6.5% (wt/vol) glycerol and 0.1 mg/ml bovine serum albumin per reaction.
Of this stock solution, 13.2 µL was aliquoted for each reaction into 1.5 mL Eppendorf tubes and supplemented with 0.3 µL of the appropriate compound dilution or DMSO with a […] DMSO concentration of 2% per reaction. The reactions were started with 1.5 µL of 50 nM (pre-screening) or 40 nM (IC50 determinations) wt E. coli gyrase in dilution buffer (50 mM Tris-HCl (pH 7.5), 100 mM KCl, 2 mM DTT, 1 mM EDTA, and 50% (wt/vol) glycerol) for a […] volume of 15 µL. Reactions were incubated at 37°C for 30 minutes before addition of 1.5 µL 0.2% (wt/vol) SDS and 0.75 µL proteinase K (0.2 mg/mL) and further incubation at 37°C for 30 minutes to trap cleavage complexes. Reactions were stopped with 15 µL chloroform:isoamyl alcohol (24: 1 v/v) and 15 µL of STEB (40% (wt/vol) sucrose, […] Tris-Cl pH 8, 10 mM EDTA, 0.5 mg/mL bromophenol blue). After brief vortexing and centrifugation at 2,300g for 5 min, 15 µL of the aqueous phase was loaded onto 1% (wt/vol) agarose in TAE (Tris-acetate […] and EDTA […]) gels supplemented with 10 µg/mL ethidium bromide.
The gels were run at 85 V for 2 hours.
DNA was visualized (602/50, UV Trans, auto optimal exposure) with a ChemiDoc MP (Bio-Rad Laboratories Inc., equipped with ImageLab Touch Software v2.0.0.27) and the percentage of cleaved DNA relative to the total amount of DNA per lane was determined with ImageJ software.[2] IC50 curves were generated in GraphPad Prism (v10.0.0) using the non-linear regression curve fit variable slope with four parameters and least squares regression.

E. coli DSM 1116 = assay: Qualitative growth inhibition assay in presence of AlbAS; assay type: cell-based, Escherichia coli; details: for GIA: E. coli inhibition +AlbA: E. coli DSM 1116, 10 µM compound with equimolar AlbAS; for bioactivity in presence of AlbAS (in words): E. coli, equimolar purified AlbAS
Protocol: Finally, we investigated if synthetic variations of building block A are able to evade the effects of the resistance protein AlbA. Therefore, we carried out a qualitative growth inhibition assay with derivatives 4–24 in presence of an equimolar amount of purified AlbAS. After incubation of the cultures overnight, the growth of the bacteria was evaluated. The ability of AlbAS to sufficiently sequester an albicidin derivative from the supernatant allowed E. coli cells to accumulate in a visible cell pellet. Second, we performed a quantitative transcription‐activation reporter assay[22] to assess transcriptional regulation by AlbAL. The promoter sequence pAlbA was inserted into a reporter vector that encodes the ilux luminescence cassette.[22] The luminescence signals elicited by ligand binding of synthetic variations to AlbAL was compared and normalized to the signal induced by 2nd Gen albicidin 2 and are hereby referred to as relative transcription activation (TA^%). The combination of both assays prompted us to categorize the experimental outcomes (Figure 4) in four groups:
Figure 4 Characterization of AlbA resistance against derivatives 2, 4–24. GIA: Qualitative growth inhibition assay against E. coli DSM 1116. (−): Derivative unable to inhibit the growth of E. coli in presence of AlbAS. (+): Derivative inhibits growth of E. coli in presence of AlbAS. […] For details see SI Figure 9. Transcription activation (TA) assay: luminescence elicited by 2nd Gen albicidin 2 from the TA assay was normalized to 100 % and the luminescence signal of tested derivatives provided: relative luminescence [%]=luminescence [derivative]/luminescence [2]×100 %. Green bars indicate low relative luminescence (<40 %) and red bars indicate high relative luminescence (>50 %). Error bars show the standard deviations of triplicate measurements. TEXT PRINTED IN THE PICTURE: 2: E. coli inhibition +AlbA: − | 4: E. coli inhibition +AlbA: + | 9: E. coli inhibition +AlbA: + | 11: E. coli inhibition +AlbA: + | 12: E. coli inhibition +AlbA: + | 13: E. coli inhibition +AlbA: ~ | 14: E. coli inhibition +AlbA: − | 16: E. coli inhibition +AlbA: − | 17: E. coli inhibition +AlbA: − | 18: E. coli inhibition +AlbA: − | 19: E. coli inhibition +AlbA: − | 20: E. coli inhibition +AlbA: + | 21: E. coli inhibition +AlbA: − | 22: E. coli inhibition +AlbA: − | 23: E. coli inhibition +AlbA: − | 24: E. coli inhibition +AlbA: − […]
1.3 Resistance assessment against AlbA
E. coli strain DSM 1116 was used for all susceptibility testing. E. coli BL21 Star (DE3) cells (Invitrogen) were used for protein expression. LB medium (Lysogeny broth: 10 g/L peptone, 5 g/L yeast extract, 5 g/L NaCl) was used as broth or in agar plates for all experiments. Incubation steps took place at 37°C and 180 rpm shaking if not stated otherwise. Throughout the study, 2nd Gen albicidin 2 was used as albicidin standard due to its better stability, availability and similar activity compared to natural albicidin in presence of resistance factors.[3,4]
AlbA expression and purification
N-terminally His-tagged AlbA was expressed using a pET28a vector as described previously.[5] In brief, E. coli BL21(DE3) cells were transformed with pET28-AlbA plasmid and grown in LB medium with kanamycin. LB broth supplemented with 50 µg/mL kanamycin was inoculated from over-night cultures and grown at 37°C until an OD600 of 0.6 was reached. After induction with 0.2 mM isopropyl β-D-1-thiogalactopyranoside (IPTG) the proteins were expressed at 18°C for 20 h. The cells were harvested by centrifugation (4,000 x G, 20 min), resuspended in lysis buffer (50 mM Tris, pH 8.0, 500 mM NaCl, 10% glycerol) and processed in a cell disruptor (Constant Systems Ltd) at 25 kPsi before centrifugation at 50,000 x G, at 4°C for 45 min. The lysate was incubated with Pure Cube Ni-NTA agarose (Cube Biotech, Germany) at 4°C for 20 min while shaking. The slurry was transferred to empty gravity-flow […]

Sequence of E. coli DNA gyrase (P0AES4 whole entry): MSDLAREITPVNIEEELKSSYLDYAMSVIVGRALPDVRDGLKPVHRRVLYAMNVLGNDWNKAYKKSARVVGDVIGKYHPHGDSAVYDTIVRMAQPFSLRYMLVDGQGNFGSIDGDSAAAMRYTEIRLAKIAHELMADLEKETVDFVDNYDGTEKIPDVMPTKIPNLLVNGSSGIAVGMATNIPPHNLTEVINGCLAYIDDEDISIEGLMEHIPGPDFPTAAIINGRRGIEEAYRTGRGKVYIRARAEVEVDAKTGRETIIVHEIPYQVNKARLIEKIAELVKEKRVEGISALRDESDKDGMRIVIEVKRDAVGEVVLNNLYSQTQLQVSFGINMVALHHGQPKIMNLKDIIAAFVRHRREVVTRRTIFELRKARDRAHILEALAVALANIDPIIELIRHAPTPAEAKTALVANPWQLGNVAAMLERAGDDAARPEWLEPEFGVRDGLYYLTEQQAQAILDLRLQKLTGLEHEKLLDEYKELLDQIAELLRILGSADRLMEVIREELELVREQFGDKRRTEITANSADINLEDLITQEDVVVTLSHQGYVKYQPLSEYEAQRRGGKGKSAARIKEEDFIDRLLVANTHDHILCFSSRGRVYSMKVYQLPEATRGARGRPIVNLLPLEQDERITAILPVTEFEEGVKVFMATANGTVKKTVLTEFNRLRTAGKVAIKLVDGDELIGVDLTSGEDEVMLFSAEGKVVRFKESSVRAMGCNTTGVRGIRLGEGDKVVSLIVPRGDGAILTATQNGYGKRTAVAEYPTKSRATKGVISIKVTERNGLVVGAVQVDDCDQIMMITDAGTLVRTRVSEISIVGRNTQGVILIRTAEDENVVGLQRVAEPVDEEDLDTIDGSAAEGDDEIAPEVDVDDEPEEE

| SMILES | CC50 (E. coli DNA gyrase) [nM] | Gyrase inhibition strong+ / weak − (E. coli DNA gyrase) | GIA: E. coli inhibition +AlbA (E. coli DSM 1116) | bioactivity in presence of AlbAS (in words) (E. coli DSM 1116) |
| --- | --- | --- | --- | --- |
| COc1c(NC(=O)c2ccc(NC(=O)c3ccc(NC(=O)[C@H](Cc4c[nH]nn4)NC(=O)c4ccc(NC(=O)c5ccc6ccccc6n5)cc4)cn3)c(OC)c2O)ccc(C(=O)O)c1O [compound 11] | 18 | + | + | highly bioactive |
| CCn1cc(C(=O)Nc2ccc(C(=O)N[C@@H](Cc3c[nH]nn3)C(=O)Nc3ccc(C(=O)Nc4ccc(C(=O)Nc5ccc(C(=O)O)c(O)c5OC)c(O)c4OC)nc3)cc2)c(=O)c2ccc(C)nc21 [compound 18] |  | − | − | deactivated |
| COc1c(NC(=O)c2ccc(NC(=O)c3ccc(NC(=O)[C@H](Cc4c[nH]nn4)NC(=O)c4ccc(NC(=O)c5ccc6ncsc6c5)cc4)cn3)c(OC)c2O)ccc(C(=O)O)c1O [compound 22] | 43 | + | − | deactivated |
| COc1c(NC(=O)c2ccc(NC(=O)c3ccc(NC(=O)[C@H](Cc4c[nH]nn4)NC(=O)c4ccc(NC(=O)c5ccc(C#N)cc5)cc4)cn3)c(OC)c2O)ccc(C(=O)O)c1O [compound 4] | 12 | + | + | has bioactivity |
| COc1c(NC(=O)c2ccc(NC(=O)c3ccc(NC(=O)[C@H](Cc4c[nH]nn4)NC(=O)c4ccc(NC(=O)c5cnc6ccccc6c5)cc4)cn3)c(OC)c2O)ccc(C(=O)O)c1O [compound 13] |  | + |  | has bioactivity |
| CCn1cc(C(=O)Nc2ccc(C(=O)N[C@@H](Cc3c[nH]nn3)C(=O)Nc3ccc(C(=O)Nc4ccc(C(=O)Nc5ccc(C(=O)O)c(O)c5OC)c(O)c4OC)nc3)cc2)c(=O)c2cc3c(cc21)OCO3 [compound 19] |  | − | − | deactivated |
| COc1c(NC(=O)c2ccc(NC(=O)c3ccc(NC(=O)[C@H](Cc4c[nH]nn4)NC(=O)c4ccc(NC(=O)c5c[nH]c6ccccc6c5=O)cc4)cn3)c(OC)c2O)ccc(C(=O)O)c1O [compound 17] |  | + | − | deactivated |
| COc1c(NC(=O)c2ccc(NC(=O)c3ccc(NC(=O)[C@H](Cc4c[nH]nn4)NC(=O)c4ccc(NC(=O)c5ccc6ncccc6c5)cc4)cn3)c(OC)c2O)ccc(C(=O)O)c1O [compound 14] |  | + | − | deactivated |
| COc1c(NC(=O)c2ccc(NC(=O)c3ccc(NC(=O)[C@H](Cc4c[nH]nn4)NC(=O)c4ccc(NC(=O)c5cc6cc(O)ccc6[nH]5)cc4)cn3)c(OC)c2O)ccc(C(=O)O)c1O [compound 21] |  | + | − | deactivated |
| COc1c(NC(=O)c2ccc(NC(=O)c3ccc(NC(=O)[C@H](Cc4c[nH]nn4)NC(=O)c4ccc(NC(=O)c5cc6ccccc6cn5)cc4)cn3)c(OC)c2O)ccc(C(=O)O)c1O [compound 12] |  | + | + | highly bioactive |
| COc1c(NC(=O)c2ccc(NC(=O)c3ccc(NC(=O)[C@H](Cc4c[nH]nn4)NC(=O)c4ccc(NC(=O)[C@@H](C)Oc5ccc(O)cc5)cc4)cn3)c(OC)c2O)ccc(C(=O)O)c1O [compound 9] |  | + | + | has bioactivity |
| COc1c(NC(=O)c2ccc(NC(=O)c3ccc(NC(=O)[C@H](Cc4c[nH]nn4)NC(=O)c4ccc(NC(=O)c5ccc6nc(C)ccc6c5)cc4)cn3)c(OC)c2O)ccc(C(=O)O)c1O [compound 16] |  | + | − | deactivated |
| COc1c(NC(=O)c2ccc(NC(=O)c3ccc(NC(=O)[C@H](Cc4c[nH]nn4)NC(=O)c4ccc(NC(=O)c5cc(=O)c6cc(F)ccc6o5)cc4)cn3)c(OC)c2O)ccc(C(=O)O)c1O [compound 20] |  | + | + | highly bioactive |
| COc1c(NC(=O)c2ccc(NC(=O)c3ccc(NC(=O)[C@H](Cc4c[nH]nn4)NC(=O)c4ccc(NC(=O)c5ccc6nc[nH]c6c5)cc4)cn3)c(OC)c2O)ccc(C(=O)O)c1O [compound 23] |  | + | − | deactivated |
| COc1c(NC(=O)c2ccc(NC(=O)c3ccc(NC(=O)[C@H](Cc4c[nH]nn4)NC(=O)c4ccc(NC(=O)c5ccc6nn[nH]c6c5)cc4)cn3)c(OC)c2O)ccc(C(=O)O)c1O [compound 24] |  | + | − | deactivated |
